Measured values reported in paper PMC8387444 (Bioorganic chemistry, 2021).

What was measured:
human CRFR1 [1] = molecular target: T1, human CRFR1 (Homo sapiens, UniProt P34998); type: binding; settings: for inhibition at 0.5 µM: read-out: Inhibition of [125I]-Tyr0-sauvagine specific binding; for Binding affinity fold lower than that of antalarmin: relative to antalarmin
T1 sequence (P34998 24-415): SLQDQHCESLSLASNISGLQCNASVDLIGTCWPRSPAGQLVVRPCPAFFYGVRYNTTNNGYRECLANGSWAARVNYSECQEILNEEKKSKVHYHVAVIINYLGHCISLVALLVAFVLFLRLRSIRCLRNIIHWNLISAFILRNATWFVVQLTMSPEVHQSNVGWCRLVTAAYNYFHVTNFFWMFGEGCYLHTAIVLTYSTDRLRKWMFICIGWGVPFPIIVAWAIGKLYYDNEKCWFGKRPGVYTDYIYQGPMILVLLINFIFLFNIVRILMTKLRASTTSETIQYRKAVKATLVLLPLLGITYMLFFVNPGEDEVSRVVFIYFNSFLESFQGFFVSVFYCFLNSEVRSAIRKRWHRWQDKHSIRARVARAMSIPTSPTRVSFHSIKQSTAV

human CRFR1 [2] = molecular target: T1, human CRFR1

SMILES | inhibition at 0.5 µM (human CRFR1 [1]) [%] | Ki (human CRFR1 [1]) [nM] | IC50 (human CRFR1 [2]) [nM] | Binding affinity fold lower than that of antalarmin (human CRFR1 [1]) [fold] | Times less potent than antalarmin to inhibit CRF-stimulated cAMP accumulation (human CRFR1 [2]; relative to antalarmin) [times]
CCCNc1nc(C)nc2c1sc(=O)n2-c1ccc(OC)cc1OC [8a, 3-(2,4-Dimethoxyphenyl)-5-methyl-7-(propylamino)thiazolo[4,5-d]pyrimidin-2(3H)-one] | < 50 |  |  |  | 
CCCCN(CCCC)c1nc(C)nc2c1sc(=O)n2-c1ccc(OC)cc1OC [8d, 7-(Dibutylamino)-3-(2,4-dimethoxyphenyl)-5-methylthiazolo[4,5-d]pyrimidin-2(3H)-one] | < 50 |  |  |  | 
CCCCN(CC)c1nc(C)nc2c1c(C)c(C)n2-c1c(C)cc(C)cc1C [antalarmin, reference compound] |  | 16.2 | 26 |  | 
CCCCN(CCCC)c1nc(C)nc2c1sc(=S)n2-c1ccc(OC)cc1OC [5d, 7-(Dibutylamino)-3-(2,4-dimethoxyphenyl)-5-methylthiazolo[4,5-d]pyrimidine-2(3H)-thione] | > 50 | 91.2 |  | 6 | 
CCN(CC)c1nc(C)nc2c1sc(=S)n2-c1ccc(OC)cc1OC [5b, 7-(Diethylamino)-3-(2,4-dimethoxyphenyl)-5-methylthiazolo[4,5-d]pyrimidine-2(3H)-thione] | > 50 | 84.5 |  | 5 | 
CCCCN(CC)c1nc(C)nc2c1sc(=S)n2-c1ccc(OC)cc1OC [5e, 7-(Butyl(ethyl)amino)-3-(2,4-dimethoxyphenyl)-5-methylthiazolo[4,5-d]pyrimidine-2(3H)-thione] | > 50 | 170 |  | 10 | 
CCN(CC)c1nc(C)nc2c1sc(=O)n2-c1ccc(OC)cc1OC [8b, 7-(Diethylamino)-3-(2,4-dimethoxyphenyl)-5-methylthiazolo[4,5-d]pyrimidin-2(3H)-one] | < 50 |  |  |  | 
CCCN(CCC)c1nc(C)nc2c1sc(=O)n2-c1ccc(OC)cc1OC [8c, 3-(2,4-Dimethoxyphenyl)-7-(dipropylamino)-5-methylthiazolo[4,5-d]pyrimidin-2(3H)-one] | > 50 | 32.1 | 2150 | 2 | 100
CCCNc1nc(C)nc2c1sc(=S)n2-c1ccc(OC)cc1OC [5a, 3-(2,4-Dimethoxyphenyl)-5-methyl-7-(propylamino)thiazolo[4,5-d]pyrimidine-2(3H)-thione] | < 50 |  |  |  | 
